Patent publication US20210371451A1, “CYCLIC-DI-AMP SODIUM SALT CRYSTAL” (Yamasa Corporation, priority 2018, published 2021)
Read-outs that look alike come from different tables or passages of the source.

What was measured:
[1] = pH 5
Method: The purified c-di-AMP was used to prepare a c-di-AMP aqueous solution with an OD257 of 2500 and at a pH of 5.0, 5.2, 5.4, 5.6, 5.8, 6.0, or 6.5. Each resulting c-di-AMP solution (0.2 mL) with an OD257 of 2500 was heated to 30° C. Next, 1 mL of 99.5% (w/w) ethanol was gently added. The mixture was then tightly sealed and allowed to stand overnight or for several days at 30° C. to precipitate crystals. The resulting crystals so precipitated were filtered through a membrane filter to yield wet crystals.
Dilution allowed for preparation of a c-di-AMP aqueous solution at a low concentration.

[2] = assay type: physicochemical; settings: for purity of crystal by HPLC: 105° C.
Method: The purity of the c-di-AMP sodium salt in the crystal α obtained in Example 1 was analyzed by high performance liquid chromatography. As a result, the purity of c-di-AMP was 100%. Note that the high performance liquid chromatography was performed under the following conditions.
Column: Hydrosphere C18 (manufactured by YMC, Inc.)
Eluent: 0.1 M TEA-P (pH 6.0)+4.5% ACN
Detection method: detection at UV260 nm
The crystals obtained in the above Example 1, Example 2, Example 4, and Reference Example were allowed to stand under conditions at 105° C. Some crystals were sampled over time, and an aqueous solution was prepared therefrom. Then, the purity of each crystal was analyzed by high performance liquid chromatography. FIG. 18 and Table 6 show the results obtained.

Compound | solubility [1] | purity of crystal by HPLC ([2]; Day 0) [%] | purity of crystal by HPLC ([2]; Day 1, sodium salt) [%] | purity of crystal by HPLC ([2]; Day 2, sodium salt) [%] | purity of crystal by HPLC ([2]; Day 3, sodium salt) [%] | purity of crystal by HPLC ([2]; Day 4, sodium salt) [%] | purity of crystal by HPLC ([2]; Day 5, sodium salt) [%] | stability under severe conditions [2] | purity of crystal by HPLC ([2]; Day 1) [%] | purity of crystal by HPLC ([2]; Day 2) [%] | purity of crystal by HPLC ([2]; Day 3) [%] | purity of crystal by HPLC ([2]; Day 4) [%] | purity of crystal by HPLC ([2]; Day 5) [%]
Nc1ncnc2c1ncn2[C@@H]1O[C@@H]2COP(=O)(O)O[C@H]3[C@@H](O)[C@H](n4cnc5c(N)ncnc54)O[C@@H]3COP(=O)(O)O[C@H]2[C@H]1O [c-di-AMP, Cyclic-di-AMP] | low |  |  |  |  |  |  |  |  |  |  |  | 
c-di-AMP sodium salt [Example 2] |  | 100.00 | 99.02 | 98.73 | 98.63 | 99.02 | 98.09 |  |  |  |  |  | 
c-di-AMP sodium salt [Example 4] |  | 100.00 | 99.65 | 99.35 | 99.14 | 99.09 | 98.93 |  |  |  |  |  | 
Nc1ncnc2c1ncn2[C@@H]1O[C@@H]2COP(=O)(O)O[C@H]3[C@@H](O)[C@H](n4cnc5c(N)ncnc54)O[C@@H]3COP(=O)(O)O[C@H]2[C@H]1O [Reference Example, c-di-AMP free acid, reference compound] |  | 100.00 |  |  |  |  |  | decreased stability | 91.81 | 88.82 | 86.46 | 86.31 | 85.42
c-di-AMP sodium salt [Example 1] |  | 100.00 | 98.75 | 97.98 | 97.98 | 97.87 | 97.15 |  |  |  |  |  | 
